Source: patent publication US20040014142A1, “Differential diagnosis of neurodegeneration” (INNOGENETICS N.V., priority 1998, published 2004)

Legend:
tau = details: in vivo
Description: Total tau was measured with the tau antigen test, using AT120 as capturing antibody and biotinylated HT7-BT2 as detector antibody (INNOTEST hTau antigen, Innogenetics, Gent, Belgium).
All patients underwent a thoroughly clinical evaluation at the time of diagnosis. Parental informed consent was available.
(§1) Lumbar punctures were performed for routine analysis either at baseline for diagnostic work-up or just prior to the IT administration of chemotherapy. Five ml of CSF was collected in different polypropylene tubes. One sample was centrifuged immediately at 1500 rpm for 2 minutes to eliminate cells and other insoluble material. The supernatant was stored at −70° C. for subsequent analysis. The number of freeze/thaw cycles was restricted to a minimum. Routine CSF measurement included cytology, protein concentration, glucose, etc.

neuromodulin = experiment: CSF neuromodulin level after chemotherapy of children (sandwich ELISA NM2/NM4); type: in vivo, human; details: child with manifest neurotoxicity and diplegia after MTX; exceeded highest standard
Description: Neuromodulin was also measured with a sandwich-type ELISA, using two epitope-specific monoclonal antibodies (NM2, NM4; Oestreicher et al., 1994). NM2 was selected as capturing antibody, biotinylated NM4 as detector antibody. Recombinant neuromodulin was used as standard.
as §1

mice = experiment: Titer after immunization of mice with α-synuclein (coating ELISA); type: in vivo
Description: Alpha-synuclein was purified from 3 liters of induced E. coli cultures resulting in purification of more than 10 mg α-synuclein (more than 90% pure estimated from coumassie and silverstained gels). The protein was injected into mice following several immunization schemes (Table 3). After 4 injections the titer to α-synuclein was evaluated in a coating ELISA.

[1] = animal 309 (m2), 1°: 50 μg α-synuclein, 2°: 5 μg peptide (IGP1463)

CSF tau level (tau) [pg/mL]	Compound	CSF neuromodulin level (neuromodulin) [pg/mL]	Estimated titer in direct coating (mice; animal 308 (m4), 50 μg protein)	Estimated titer in direct coating (mice; [1])	titer on peptide (mice; [1])	Estimated titer in direct coating (mice; animal 309 (m4), 1°: 50 μg α-synuclein, 2°: 5 μg peptide (IGP1463))	Estimated titer in direct coating (mice; animal 312 (m2), 5 μg α-synuclein protein)	Estimated titer in direct coating (mice; animal 312 (m3), 5 μg α-synuclein protein)	Estimated titer in direct coating (mice; animal 313 (m2), 1°: 50 μg protein, 2°: 5 μg protein)	titer to α-synuclein (serum dilution resulting in OD value twice the background) (mice; six mice, after 4 injections)
> 1500	CN(Cc1cnc2nc(N)nc(N)c2n1)c1ccc(C(=O)N[C@@H](CCC(=O)O)C(=O)O)cc1 [MTX, methotrexate]	> 8000								
	α-synuclein		250000	512000	(titer of 2000 on peptide)	128000	100000	>512000	2500000	above 100000
